Reference: PubChem BioAssay AID850 (SRMLSC, 2007)
Active and inactive are the calls of the source. How the calls were made is not given here.

Columns and labels:
[1] = yeast lifespan-shortening chemical project counter-assay, dose-response inhibition of growth under permissive conditions (AID 850); settings: Saccharomyces cerevisiae growth inhibition, permissive control, measured here: maximum growth inhibition, stronger effect = higher value;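 further: growth read as optical density after one day of incubation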
[2] = tested on: Saccharomyces cerevisiae growth inhibition, permissive control; test: as above

Compound | IC50 [2] | inhibition ([1]; at 50 µM) [%] | further results
COc1cc(/C=N/N(C)c2ccccc2)cc(Cl)c1O | > 100 µM (inactive) |  | inhibition ([1]; at 1.563 µM): 14.6%
CC(C)CN=Cc1c(O)c([N+](=O)[O-])cc2oc3c(c12)CCCC3 | 41 µM | 60.1 | 
COc1ccc(NC(=O)CC2SC(=Nc3ccccc3)NC2=O)c(OC)c1 (stereo not drawn) | > 100 µM (inactive) |  | inhibition ([1]; at 25 µM): 23.9%
CCCc1cc(C(=O)Cc2ccc(F)cc2)c(O)cc1O | 26.9 µM | 80.4 | 
CCn1ncc(C2=NOC(C(=O)Nc3c(C)n(C)n(-c4ccccc4)c3=O)C2)c1C (stereo not drawn) | > 100 µM (inactive) |  | inhibition ([1]; at 0.195 µM): 6.76%
Oc1cc(-c2ccccc2)c2ccccc2c1 | 35.3 µM | 92.8 | 
CCN1/C(=C/c2ccc3cccc(C)c3[n+]2CC)Sc2ccccc21 | 8.03 µM | 99.4 | 
CCOc1ccc(-c2[nH]ncc2Oc2cccc(OC)c2)c(O)c1 | > 100 µM (inactive) | 28.1 | 
Cc1ccc2nc3c(nc2c1)-c1ccccc1C3=O | > 100 µM (inactive) | 17 | 
CCC1CCCCN1C(=O)CSc1nnc(-c2ccc(OC)cc2)o1 (stereo not drawn) | > 100 µM (inactive) |  | inhibition ([1]; at 12.5 µM): 24.1%
Cc1cccc(N=Nc2ccc(O)c3ncccc23)c1 | > 100 µM (inactive) | 27.9 | 
Cc1ccc(-c2nc(N)sc2-c2ccccc2)cc1C | > 100 µM (inactive) |  | inhibition ([1]; at 6.25 µM): 16%
CCN(CC)N=Nc1[nH]nc2nc(C)cc(C)c12 | 48.6 µM | 55.1 | 
CCN1CCN(c2ncnc3c2sc(=S)n3-c2ccccc2)CC1 | > 100 µM (inactive) |  | inhibition ([1]; at 0.195 µM): 15.6%
COc1cccc(/C=N/Nc2ncc(C(F)(F)F)cc2Cl)c1O | > 100 µM (inactive) | 29.3 | 
CC1=NNC(=O)/C1=C\c1cn(-c2ccccc2)nc1-c1cccs1 | 8.18 µM | 98 | 
O=[N+]([O-])c1ccccc1-c1cc(-c2cc(Cl)ccc2O)n[nH]1 | > 100 µM (inactive) |  | inhibition ([1]; at 12.5 µM): 16.3%

Compound | IC50 [2] | inhibition ([1]; at 50 µM) [%] | further results
O=c1oc2ccccc2c(O)c1/C=C1\C=Nc2ccccc21 | 5.05 µM | 93.2 | 
COc1ccc(OC)c(CCNC(=O)Cn2sc3nc(C)cc(C)c3c2=O)c1 | > 100 µM (inactive) |  | inhibition ([1]; at 0.391 µM): 13%
CCc1ccc(/C=C/C(=O)c2cc(Br)ccc(=O)c2O)cc1 | 13.3 µM | 83.6 | 
Cc1cccc(OCCn2cc(/C=N/NC(=O)c3ccncc3)c3ccccc32)c1 | > 100 µM (inactive) |  | inhibition ([1]; at 0.781 µM): 10%
CCOC(=O)C1CCCCN1C(=O)CCc1c(C)nc2cc(-c3ccccc3)nn2c1C (stereo not drawn) | > 100 µM (inactive) |  | inhibition ([1]; at 25 µM): 21.6%
CCOc1cc(/C=N/Nc2ccccc2Cl)ccc1OCC(=O)O | 9.2 µM | 99 | 
C=CCn1c2ccccc2c2nnc(SCN3C(=O)c4ccccc4C3=O)nc21 | > 100 µM (inactive) |  | inhibition ([1]; at 6.25 µM): 12.7%
CC(C)(C)C(O)C(Oc1ccc(Cl)cc1)n1cncn1 (stereo not drawn) | 2.15 µM |  | inhibition ([1]; at 12.5 µM): 95.1%
O=C(c1cc(-c2ccccc2O)on1)N1CCc2ccccc2C1 | > 100 µM (inactive) |  | inhibition ([1]; at 0.391 µM): 16.3%
CCCCCCCCC/C(=N\O)c1ccccn1 | 5.48 µM | 101 | 
C=C(C)COc1ccc(-c2[nH]ncc2Oc2cccc(OC)c2)c(O)c1 | > 100 µM (inactive) |  | inhibition ([1]; at 12.5 µM): 20.1%
S=C1SCN(Cc2ccccn2)CN1Cc1ccco1 | 43.4 µM | 55.7 | 
CCCc1cc(C(=O)NC2CCCCC2)no1 | > 100 µM (inactive) |  | inhibition ([1]; at 0.391 µM): 10.3%
CN1CCN(CC(=O)N2CCn3c4c(c5cc(C6CCCCC6)ccc53)CCCC42)CC1 (stereo not drawn) | > 100 µM (inactive) |  | inhibition ([1]; at 1.563 µM): 6.73%
CCOCC(=O)Nc1nc2c(s1)C(=O)CC(C)(C)C2 | > 100 µM (inactive) | 1.4 | 
CC1/C(=N/O)CC(c2ccccc2)N(C)C1c1ccccc1 (stereo not drawn) | < 0.098 µM |  | inhibition ([1]; at 25 µM): 94.8%
Cn1cccc1C(=O)NC(=O)CSc1cccc[n+]1[O-] | 24.3 µM | 97.5 | 
